Results on 22 compounds are retold here after EP4477653A1 (Perha Pharmaceuticals, priority 2023, dated 2024).

In general, chromatographic logD refers to lipophilicity estimated from chromatographic retention. A low value points to a more hydrophilic compound.

Molecules are shown by their SMILES. Read-outs that look alike come from different tables or passages of the source.

The target of series [1] is T1, human recombinant A3AR (expressed in HEK-293 cells) (Homo sapiens, UniProt P0DMS8).
T1 construct: host or cells: HEK-293 cells
T1 sequence (P0DMS8 1-318): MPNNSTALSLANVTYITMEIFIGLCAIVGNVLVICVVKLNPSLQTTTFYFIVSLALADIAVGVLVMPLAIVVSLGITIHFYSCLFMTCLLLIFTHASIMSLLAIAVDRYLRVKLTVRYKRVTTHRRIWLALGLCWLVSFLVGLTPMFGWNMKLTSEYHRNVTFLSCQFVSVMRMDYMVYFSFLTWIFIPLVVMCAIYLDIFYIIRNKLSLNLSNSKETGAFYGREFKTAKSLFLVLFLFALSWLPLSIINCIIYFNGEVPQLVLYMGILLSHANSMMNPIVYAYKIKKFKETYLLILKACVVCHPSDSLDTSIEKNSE
Description: Adenosine receptors antagonism assay (Eurofins), [125I]-AB-MECA radioligand competition. Format: binding.

Series [2] in a line: LogD (HPLC). Format: physicochemical. To be noted: by HPLC; Table 2.
For series [3], the system named is panel of 168 GPCRs. The series is described as follows: PathHunter β-arrestin enzyme fragment complementation, agonist and antagonist mode. Type of series: cell-based. To be noted: figure 2. Here is the method:
[…] In brief, when the GPCR is activated and β-Arrestin is recruited to the receptor, the two fragments of β-galactosidase complementation occurs, restoring β- galactosidase activity which is measured using chemiluminescent PathHunter® Detection Reagents. The tested compound can be evaluated as a potential agonist or, in the presnece of a specifi agonits of each GPCR, as a potential antagonist. Results are provided in reference to the assay performed in the absence of tested compound.
The results of an evaluation of the potential agonist or antagonist activity of compound (175) on 168 GPCRs are depicted in figure 2.

For series [4], the target named is T2, Human recombinant A3AR expressed in CHO cells (Homo sapiens, UniProt P0DMS8).
T2 construct: expressed in transfected cells; host or cells: CHO cells
T2 sequence (P0DMS8 1-318): T1 sequence (P0DMS8 1-318)
Description: A3AR functional assay, cAMP levels measured by HTRF. Type of series: cell-based. Here is the method:
Both assays were run for 20 min at 37°C, and cAMP levels measured by HTRF (homogeneous time resolved fluorescence) was used as an endpoint. The EC50 values (concentration producing a half-maximal response) and IC50 values (concentration causing a half-maximal inhibition of the control agonist response) were determined by non-linear regression analysis of the concentration-response curves generated with mean replicate values using Hill equation curve fitting.
An antagonistic activity in a radioligand assay can be due to competition to the same site by either an agonist or an antagonist (inhibitor). […] Assays were run for 20 min at 37°C and cAMP level measured by HTRF was used as an endpoint measure of the A3AR activity.

Series [5] has as its system hair cells in isolated organs of Corti. Description: Otoprotective effects in ex vivo cultured organs of Corti, hair cells stained for myosine 7a. Type of series: cell-based, mice. Particulars: 24 hrs, compound 0.1-1 µM added 2 hrs before. Here is the method:
Organs of Corti were obtained from mice at the P0-P3 stage. Organs of Corti were cultured ex vivo for 24 h before addition of cisplatin (20 µM), gentamycin (100 µM) or neomycin (3 mM) with or without compound (175) (1 or 0.1 µM) added 2 hrs before the ototoxins. After 24 hrs incubation, outer and inner ciliated hair cells were stained with an antibody directed against myosine 7a.

Setting [6] is: [125I]-AB-MECA 0.15 nM, r.t., 120 min; IC50 from dose-response curves; read-out: Potency Class A3AR.
The mark [7] stands for this setting: read-out: Potency Class A3AR; [125I]-AB-MECA 0.15 nM, r.t., 120 min; IC50 from dose-response curves.

With `CC(C)c1nnc2c(NCc3ccccc3)cc(NCC3CC3)nn12` [compound 122, N8-benzyl-N6-(cyclopropylmethyl)-3-isopropyl-[1,2,4]triazolo[4,3-b]pyridazine-6,8-diamine], in series [1] (setting [6]), the IC50 was 10 to 100 nM. The same compound showed a chromatographic logD in series [2] of 3.33.

`CC(C)c1nnc2c(NCc3ccccc3)cc(NCC3CCC3)nn12` [compound 123]: the IC50 in series [1] (setting [7]) was in the range of 10 to 100 nM. In series [2], this compound registered a chromatographic logD of 3.86.

For `CC(C)c1nnc2c(NCc3ccccc3)cc(NCC3CCCCC3)nn12` [compound 124, N8-benzyl-N6-(cyclohexylmethyl)-3-isopropyl-[1,2,4]triazolo[4,3-b]pyridazine-6,8-diamine], the IC50 in series [1] (setting [6]) was in the range of 10 to 100 nM. In series [2], this compound came in with a chromatographic logD of 4.6.

On to `CC(C)c1nnc2c(NCc3ccccc3)cc(NCC3CCOCC3)nn12` [compound 125, N8-benzyl-3-isopropyl-N6-(tetrahydropyran-4-ylmethyl)-[1,2,4]triazolo[4,3-b]pyridazine-6,8-diamine], for which the IC50 in series [1] (setting [6]) fell in the range of 100 to 1000 nM. The compound also gave a chromatographic logD in series [2] of 2.74.

As for `CCC(CC)CNc1cc(NCc2ccccc2)c2nnc(C(C)C)n2n1` [compound 126, N8-benzyl-N6-(2-ethylbutyl)-3-isopropyl-[1,2,4]triazolo[4,3-b]pyridazine-6,8-diamine], the IC50 in series [1] (setting [6]) lay within 1 to 10 nM. This compound yielded a chromatographic logD in series [2] of 4.42.

Consider `CC(C)c1nnc2c(NCc3ccccc3)cc(NCCc3ccccc3)nn12` [compound 127, N8-benzyl-3-isopropyl-N6-(2-phenylethyl)-[1,2,4]triazolo[4,3-b]pyridazine-6,8-diamine], for which the IC50 in series [1] (setting [6]) is 10 to 100 nM. For the same compound, in series [2], the chromatographic logD is 3.78.

In the case of `CC(C)c1nnc2c(NCc3ccccc3)cc(NCCOc3ccccc3)nn12` [compound 128, N8-benzyl-3-isopropyl-N6-(2-phenoxyethyl)-[1,2,4]triazolo[4,3-b]pyridazine-6,8-diamine], in series [1] (setting [6]), the IC50 is 100 to 1000 nM. The compound further gave a chromatographic logD in series [2] of 3.68.

Turning to `CC(C)c1nnc2c(NCc3ccccc3)cc(NCc3nccn3C)nn12` [compound 129, N8-benzyl-3-isopropyl-N6-[(1-methylimidazol-2-yl)methyl]-[1,2,4]triazolo[4,3-b]pyridazine-6,8-diamine], the IC50 in series [1] (setting [6]) lay within 100 to 1000 nM. Further, the chromatographic logD in series [2] is 1.95.

For the compound `CC(C)c1nnc2c(NCc3ccccc3)cc(NCc3ccccc3)nn12` [compound 130, N6,N8-dibenzyl-3-isopropyl-[1,2,4]triazolo[4,3-b]pyridazine-6,8-diamine], in series [1] (setting [6]), the IC50 is 1 to 10 nM. The same compound displayed a chromatographic logD in series [2] of 3.5.

Consider `CC(C)c1nnc2c(NCc3ccccc3)cc(NCc3ccccn3)nn12` [compound 131, N8-benzyl-3-isopropyl-N6-(2-pyridylmethyl)-[1,2,4]triazolo[4,3-b]pyridazine-6,8-diamine], for which the IC50 in series [1] (setting [6]) lay in the range of 10 to 100 nM. This compound yielded a chromatographic logD in series [2] of 2.51.

As to `CC(C)c1nnc2c(NCc3ccccc3)cc(NCc3cccnc3)nn12` [compound 132, N8-benzyl-3-isopropyl-N6-(3-pyridylmethyl)-[1,2,4]triazolo[4,3-b]pyridazine-6,8-diamine], the IC50 in series [1] (setting [6]) is 10 to 100 nM. Moreover, the chromatographic logD in series [2] worked out at 2.36.

Turning to `CC(C)c1nnc2c(NCc3ccccc3)cc(NCc3ccncc3)nn12` [compound 133, N8-benzyl-3-isopropyl-N6-(4-pyridylmethyl)-[1,2,4]triazolo[4,3-b]pyridazine-6,8-diamine], the IC50 in series [1] (setting [6]) was 100 to 1000 nM. The chromatographic logD in series [2] amounted to 2.36.

Consider `CC(C)c1nnc2c(NCc3ccccc3)cc(NCC3(C)CCCCC3)nn12` [compound 136], for which the IC50 in series [1] (setting [7]) was 10 to 100 nM. Further, the chromatographic logD in series [2] is 4.88.

With `CC(C)c1nnc2c(NCc3ccccc3)cc(NC34CC5CC(CC(C5)C3)C4)nn12` [compound 137, N6-(1-adamantyl)-N8-benzyl-3-isopropyl-[1,2,4]triazolo[4,3-b]pyridazine-6,8-diamine], the IC50 in series [1] (setting [6]) was 100 to 1000 nM. In series [2], this compound had a chromatographic logD of 5.02.

With `CC(C)c1nnc2c(NCc3ccccc3)cc(NC3Cc4ccccc4C3)nn12` [compound 138, N8-benzyl-N6-indan-2-yl-3-isopropyl-[1,2,4]triazolo[4,3-b]pyridazine-6,8-diamine], in series [1] (setting [6]), the IC50 fell in the range of 10 to 100 nM. For the same compound, in series [2], the chromatographic logD is 4.08.

Take `Cc1cnc(CNc2cc(NCc3ccccc3)c3nnc(C(C)C)n3n2)cn1` [compound 139, N8-benzyl-3-isopropyl-N6-[(5-methylpyrazin-2-yl)methyl]-[1,2,4]triazolo[4,3-b]pyridazine-6,8-diamine]: in series [1] (setting [6]), the IC50 was in the range of 100 to 1000 nM. In addition, in series [2], the chromatographic logD came to 2.3.

Take `CC(C)c1nnc2c(NCc3ccccc3)cc(NCc3cnn(C)c3)nn12` [compound 140, N8-benzyl-3-isopropyl-N6-[(1-methylpyrazol-4-yl)methyl]-[1,2,4]triazolo[4,3-b]pyridazine-6,8-diamine]: in series [1] (setting [6]), the IC50 is 10 to 100 nM. The compound further registered a chromatographic logD in series [2] of 2.3.

As for `Cc1cc(C)cc(CNc2cc(NCc3ccccc3)c3nnc(C(C)C)n3n2)c1` [compound 141, N8-benzyl-N6-[(3,5-dimethylphenyl)methyl]-3-isopropyl-[1,2,4]triazolo[4,3-b]pyridazine-6,8-diamine], the IC50 in series [1] (setting [6]) lay within 100 to 1000 nM. Besides, the chromatographic logD in series [2] was determined as 4.2.

For the compound `CSCCNc1cc(NCc2ccccc2)c2nnc(C(C)C)n2n1` [compound 143, N8-benzyl-3-isopropyl-N6-(2-methylsulfanylethyl)-[1,2,4]triazolo[4,3-b]pyridazine-6,8-diamine], the IC50 in series [1] (setting [6]) was 10 to 100 nM. In series [2], this compound showed a chromatographic logD of 3.07.

As to `CC(C)c1nnc2c(NCc3ccccc3)cc(Nc3nccn3C)nn12` [compound 144, N8-benzyl-3-isopropyl-N6-(1-methylimidazol-2-yl)-[1,2,4]triazolo[4,3-b]pyridazine-6,8-diamine], the IC50 in series [1] (setting [6]) lay in the range of 100 to 1000 nM. Besides, the chromatographic logD in series [2] is 2.27.

On to `Cc1cc(C)nc(CNc2cc(NCc3ccccc3)c3nnc(C(C)C)n3n2)n1` [compound 145, N8-benzyl-N6-[(4,6-dimethylpyrimidin-2-yl)methyl]-3-isopropyl-[1,2,4]triazolo[4,3-b]pyridazine-6,8-diamine], for which the IC50 in series [1] (setting [6]) was in the range of 100 to 1000 nM. The same compound registered a chromatographic logD in series [2] of 2.52.

In the case of `CCC(CC)Nc1cc(Nc2cccnn2)c2nnc(C3CC3)n2n1` [compound 175, 3-cyclopropyl-N6-(pentan-3-yl)-N8-(pyridazin-3-yl)-[1,2,4]triazolo[4,3-b]pyridazine-6,8-diamine], the “selectivity towards ARs” value in series [1] (A3AR compared to A1AR, A2AAR and A2BAR; figure 3) is “selective of A3AR”. Moreover, the IC50 in series [1] (setting [6]) was less than 1 nM. In addition, in series [3] (agonist and antagonist mode, 0.1 µM compound), the “effect on all other GPCRs” value is given as “not or marginally impacted”. In addition, the “inhibition of A3AR among 168 GPCRs” value in series [3] (antagonist mode, GPCR exposed to its specific ligand and 0.1 µM compound) is recorded as “fully inhibited”. In addition, the agonist effect entry in series [4] (absence of ligand, concentrations tested 1 nM to 3.3 µM, data not shown) is recorded as “no agonist effect was detected”. Besides, in series [4] (antagonist mode, stimulation 10 nM IB-MECA, 20 min at 37°C, figure 4), the “inhibition of A3AR” value was no less than 65%. For the same compound, the “mode of action on A3AR” value in series [4] (figure 4) was “partial antagonist inhibitor”. Besides, in series [5] (cisplatin 20 µM, figure 5A), the “hair cell death induced by cisplatin” value is on record as “prevented cell death”. Moreover, in series [5] (gentamycin 100 µM, figure 5B), the “hair cell death induced by gentamycin” value was “prevented cell death”. Besides, the “hair cell death induced by neomycin” value in series [5] (neomycin 3 mM, figure 5C) is on record as “prevented cell death”.
